Measured values reported in patent US20100298758A1, “METHOD FOR NON-THERAPEUTIC OR THERAPEUTIC PHOTODYNAMIC SKIN TREATMENT” (priority 2007, published 2010).

System: cancer cells with high metabolism
Test: Fluorescence after administration of 5-ALA in actinic keratosis (FIG. 5)
Assay type: in vivo
Details: other investigations

NCC(=O)CCC(=O)O [5-ALA, 5-aminolevulinic acid]
fluorescence in cancer cells compared to normal cells: high selective fluorescence in cancer cells
